Source: patent US6855687B2 (The Board of Regents The University of Texas System, priority 2000, dated 2005)
Like-named read-outs stand apart in the source and are kept apart here.

Target: thrombin receptor
Assay: Specific binding of 125I thrombin to rat chondrocytes (Scatchard analysis)
Experimental: Primary cultures of rat articular chondrocytes were isolated and prepared for in vitro analysis using established methods (see Kuettner, K E., et.al., J. Cell Biology 93: 743-750, 1982). Briefly, cartilage pieces were dissected from the shoulder of rats and the pieces were digested with trypsin for one hour and with collagenase for three hours in tissue culture medium (DMEM) at 37 C. with stirring. The cells were plated in flasks at high density (50,000 cells/cm sq.) and were culture in DMEM containing antibiotics an ascorbic acid at 37° C. in an atmosphere of 5% CO2.

## thrombin
Scatchard analysis, 125I thrombin, three separate experiments, read-out: affinity of very high affinity binding sites
  Kd: 0.1 nM
Summary statement of Example 1, read-out: apparent affinity (3000 sites)
  Kd: ~0.1 nM
